From patent publication US20170367390A1, “USE OF ELLAGIC ACID DIHYDRATE IN FOOD PRODUCTS AND NUTRACEUTICALS” (HALO LIFE SCIENCE, LLC, priority 2014, published 2017)
Entries after “also recorded” stand apart in the source; their conditions may differ.

Columns and labels:
AKT = experiment: AKT:Phos AKT ratio by immunocytochemistry, high-content imaging in C2C12; format: cell-based, mouse; conditions: serum starved C2C12, 30 minutes; 4 nM-4 μM for insulin and ellagic acid dihydrate
Protocol: Stimulation of AKT pathways and MAPK pathways in ellagic acid dihydrate, metformin, and insulin treated cell cultures was performed. Insulin stimulates glucose uptake into cells by increasing GLUT4 activation, and AKT, specifically phos-AKT, signaling alters GLUT4 translocation. […] Cellular assays were performed using mouse myoblast C2C12 cells. […] Serum starved cells (1 hr) were treated for 30 minutes with each of the tested compounds.

[1] = test system: mouse myoblast C2C12 cells; experiment: Glucose uptake, 2-NBDG labeling, flow cytometry, C2C12; format: cell-based
Protocol: (§1) Cellular assays were performed using mouse myoblast C2C12 cells and MEF cells. […] Increased glucose uptake was indicated as increasing signal of 2-NBDG ([…]) in cells. Glucose uptake assays were carried out in a final incubation volume of 50 μl consisting of, 2-NBDG), (100 μM) in 1× Phosphate Buffered Saline w/Ca+, Mg+ (PBS++). The same buffer was used for washing cells. Insulin was used as a positive control. All testing compounds were prepared in 10% DMSO and diluted 1:100 for a final concentration of 0.1% DMSO (vehicle). Cells were culture to 70-90% confluence and then washed twice with PBS++. Cells were incubated for 30 minutes at 37° C. in PBS++. Nuclear stain, HCS CellMask stain (blue, Invitrogen), and/or testing compounds (ellagic acid dihydrate, insulin, or vehicle) were added. Cells were incubated for 30 min at 37° C. Cells were washed twice with PBS++ and incubated with 2-NBDG for 10 minutes. Cells were washed thrice with PBS++ and then imaged in PBS++. Alternatively, the final PBS wash was removed and cells were incubated with Accutase (Invitrogen) for 10 min at 37° C., neutralized with 10% FBS in 1×PBS, and analyzed by flow cytometry. An additional experiment was performed to measure glucose uptake in C2Cl2 cells exposed to metformin, insulin and ellagic acid dihydrate 2 (batch 2). FIG. 5C.

Activity level in mice = format: in vivo, mouse; conditions: predicted from in vitro data of Example 5
From the text: Activity levels in mice treated with ellagic acid dihydrate may be quantified by several procedures, such as those outlined in Turri, M. et al.; QTL Analysis Identifies Multiple Behavioral Dimensions in Ethological Tests of Anxiety in Laboratory Mice; Current Biology; 2001; 11(10): 725-734. Two examples of procedures taught therein follows. Gross Locomotor Activity in Home Cage: Mice are caged singly several days prior to home cage activity monitoring and subsequent testing. Activity in home cages are measured during the first 2 hours of the dark cycle on two consecutive days. Two infrared photo emitter-detector pairs, located outside the clear plastic home cage that divide the cage into three equal areas, are used to record gross locomotor activity on the floor of the home cage as the animal breaks the photo beams. The beam-break activity score consists of the square root of the number of beam breaks for each detector summed across the two test days. Magnitude of Activity in Home Cage: Mice are caged singly several days prior to home cage activity monitoring and subsequent testing. Activity in home cages are measured during the first 2 hours of the dark cycle on two consecutive days. An infrared motion detector located above the top of the home cage is employed to converts all motion sensed within the home cage into arbitrary units, based on the magnitude of activity detected.

MEF cells = experiment: Glucose uptake, 2-NBDG labeling, flow cytometry, MEFs; format: cell-based, mouse
Protocol: as §1, with “5C. Glucose uptake in ellagic acid dihydrate treated cell culture was measured and compared to glucose uptake under insulin or ellagic acid treatment. […] Flow cytometry results were run in triplicate with 1000 cells per batch.” for “5C.”

SMILES: O.O.O=c1oc2c(O)c(O)cc3c(=O)oc4c(O)c(O)cc1c4c23 [ellagic acid dihydrate]
- AKT:Phos AKT ratio (log 2 scale) relative to vehicle treated cells (AKT): increase in AKT relative to Phos-AKT signal
- increase in glucose uptake compared with metformin ([1]; C2C12, at 4000 nm, FIG. 5C (ellagic acid dihydrate batch 2)): greater increase in glucose uptake than metformin
- dose effect for increasing glucose uptake ([1]; C2C12, flow cytometry, 2-NBDG): dose effect for increasing glucose uptake
- glucose uptake (2-NBDG signal) relative to vehicle ([1]; C2C12, flow cytometry, vehicle 0.1% DMSO): significantly greater than vehicle treated
- increase in glucose uptake in myoblasts relative to fibroblasts ([1]; C2C12 myoblasts versus MEF fibroblasts): ~4 ×
- glucose uptake relative to insulin ([1]; myoblasts (C2C12), at most concentrations tested / equal concentrations, dihydrate): significantly more glucose uptake relative to insulin; also recorded: exceeded the uptake induced by insulin
- activity level compared to mice treated with ellagic acid (Activity level in mice): significantly greater activity level
- increased glucose uptake (percent change relative to vehicle) (MEF cells; 400 nM exposure, fibroblasts (MEFs), flow cytometry): 47%
- dose effect for increasing glucose uptake (MEF cells; MEFs, flow cytometry, 2-NBDG): dose effect for increasing glucose uptake
- increase in glucose uptake compared with ellagic acid or insulin (MEF cells; MEFs, flow cytometry, Example 5): significantly greater increase in glucose uptake than that seen in ellagic acid (EA) or insulin treatment
- glucose uptake (2-NBDG signal) relative to vehicle (MEF cells; MEFs, flow cytometry, vehicle 0.1% DMSO): significantly greater than vehicle treated
- glucose uptake relative to insulin (MEF cells; fibroblasts (MEFs), at most concentrations tested / equal concentrations, dihydrate): significantly more glucose uptake relative to insulin; also recorded: exceeded the uptake induced by insulin
